Measured values published in patent publication US11767295B2, “Isoindole derivative” (TIANJIN HEMAY PHARMACEUTICAL CO., LTD., priority 2018, dated 2023).

Columns and labels:
Format in all cases: in vivo
[1] = tested on: DNCB-induced atopic dermatitis in Balb/c mice; test: Efficacy evaluation test of DNCB-induced atopic dermatitis in Balb/c mice model (Biological Example 1); details: BID × 10
Protocol: 60 healthy male SPF Balb/c mice, each of which the body weight was 19-21 g, were randomly divided into 6 groups by body weight. There were 10 mice in each group.
(§1) Before the test, the hair around the right ear of the mouse was removed to reduce the interference in the drug adhesion to the hair.
(§2) The start of the test was recorded as Day 1. The specific time for measuring ear thickness was slightly adjusted based on FIG. 1. After the end of the 18th day of the test, blood was taken from each animal to detect the concentration of immunoglobulin (IgE) in the serum (in accordance with the kit instructions). Both ears of the animal were cut off. Ear pieces were cut by an 8 mm punch at the fixed position of the ears and weighed. Differences in the swelling degrees of two ears were calculated.
The changes in mouse ear thickness and the ear weights of the same area and the IgE concentrations in the serum among different groups on the 18th day were analyzed and compared statistically with One-Way Anova in SPSS 17, respectively. The G test method was used to delete outliers. p<0.05 indicated there were statistical differences. Ear swelling degree (mg)=right ear weight (mg)−left ear weight (mg); Ear thickness change (mm)=right ear thickness (mm)−left ear thickness (mm); Inhibitory rate of ear swelling degree (%)=1−(ear swelling degree of drug administration group−ear swelling degree of blank control group)/(ear swelling degree of model control group−ear swelling degree of blank control group)×100%; Inhibitory rate of ear thickness change (%)=1−(ear thickness change of drug administration group−ear thickness change of blank control group)/(ear thickness change of model control group−ear thickness change of blank control group)×100%; Inhibitory rate of IgE (%)=1−(IgE concentration in administration group−IgE concentration in blank control group)/(IgE concentration in model control group−IgE concentration in blank control group)×100%.

[2] = tested on: Phorbol ester (TPA)-induced ear swelling in mice; test: Inhibition of phorbol ester (TPA)-induced ear swelling in mice (Biological Example 5); details: ICR mice, 5 hours after TPA modeling; for Ear Swelling Rate / Inhibitory Rate of Ear Swelling Degree: 2 mg/mouse on right ear; for Ear Swelling Rate: (right−left)/left ear weight; for Inhibitory Rate of Ear Swelling Degree: vs model and blank control; for Ear Swelling Degree: 50 mg/mL in acetone, 40 μL in 2 administrations (2 mg/mouse)
Protocol: 72 male ICR mice were selected and divided into 9 groups. There were 8 mice in each group.
Before the test, the animals were grouped and the hair around the right ear of the mice was removed.
20 μL of respective drug was applied to the animals in each test group (a blank solvent was applied to the model control group). Modeling and induction were carried out after 1 h 10 min. Except for the blank group, 20 μL of TPA at a concentration of 125 μg/mL were applied to the right ears of the animals for induction. After induction for 10 minutes, 20 μL of respective drug were applied to the right ears of the animals in each test group (a blank solvent was applied to the model control group).
After modeling for 5 hours, ear pieces of both sides on the same location of animals in each group were taken with a punch and weighed to calculate the ear swelling degree, ear swelling rate and inhibitory rate.
The ear swelling degree and ear swelling rate after modeling and administration for 5 hours were analyzed and tested with One-Way ANOVA multiple-group test index in SPSS17.0. P<0.05 indicated there were statistical differences. Ear swelling degree (mg)=right ear weight (mg)−left ear weight (mg); Ear swelling rate (%)=(right ear weight−left ear weight)/left ear weight×100%; Inhibitory rate of ear swelling degree (%)=1−(ear swelling degree of drug administration group−ear swelling degree of blank control group)/(ear swelling degree of model control group−ear swelling degree of blank control group)×100%.

[3] = tested on: DNCB-induced atopic dermatitis in Balb/c mice; test: Efficacy evaluation test of DNCB-induced atopic dermatitis in Balb/c mice model (Biological Example 2); details: BID × 10; for Inhibitory Rate of Ear Swelling / Weight Changes of Animals, Day 10 / Weight Changes of Animals, Day 17 / Weight Changes of Animals, Day 18 / Ear Swelling Degree / IgE Concentration / Inhibitory Rate of IgE Concentration: 1 mg/mouse on ear; for Inhibitory Rate of Ear Swelling / Ear Swelling Degree / IgE Concentration / Inhibitory Rate of IgE Concentration: 18th day; for Inhibitory Rate of Ear Swelling / Inhibitory Rate of IgE Concentration: vs model and blank control; for Weight Changes of Animals, Day 1 / Weight Changes of Animals, Day 10 / Weight Changes of Animals, Day 17 / Weight Changes of Animals, Day 18: Balb/c mice, Mean ± S.D.; for Weight Changes of Animals, Day 1: 1 mg/mouse (50 mg/mL, 20 μL) on ear; for Ear Swelling Degree: right minus left ear piece weight; for IgE Concentration / Inhibitory Rate of IgE Concentration: serum
Protocol: 70 healthy male SPF Balb/c mice, each of which the weight was 19-21 g, were randomly divided into 7 groups by body weight. There were 10 mice in each group.
as §1
as §2, with “Day” for “Day 1. The specific time for measuring ear thickness was slightly adjusted based on FIG.”
The IgE concentrations in the serum of different groups on the 18th day were analyzed and compared statistically with One-Way Anova in SPSS 17, respectively. The G test method was used to delete outliers. p<0.05 indicated there were statistical differences. Ear swelling degree (mg)=right ear weight (mg)−left ear weight (mg); Inhibitory rate of ear swelling degree (%)=1−(ear swelling degree of drug administration group−ear swelling degree of blank control group)/(ear swelling degree of model control group−ear swelling degree of blank control group)×100%; Inhibitory rate of IgE (%)=1−(IgE concentration in administration group−IgE concentration in blank control group)/(IgE concentration in model control group−IgE concentration in blank control group)×100%.

[4] = Balb/c mice, 1 mg/mouse on ear, Day 10, Mean ± S.D.
[5] = Balb/c mice, 1 mg/mouse on ear, Day 17, Mean ± S.D.
[6] = Balb/c mice, 1 mg/mouse on ear, Day 18, Mean ± S.D.

Row | SMILES | Weight Changes of Animals, Day 1 [3] | Weight Changes of Animals, Day 10 [3] | Weight Changes of Animals, Day 17 [3] | Weight Changes of Animals, Day 18 [3] | Ear Swelling Rate [2] | Inhibitory Rate of Ear Swelling Degree [2] | Ear Swelling Degree [2] | Inhibitory Rate of Ear Swelling [3] | Ear Swelling Degree [3] | IgE Concentration [3] | Inhibitory Rate of IgE Concentration [3] | other results
1 | COC(=O)CC(c1ccc(OC)c(OC)c1)N1C(=O)c2cccc(NC(C)=O)c2C1=O (stereo not drawn) [Example 3, methyl 3-(4-acetamido-1,3-dioxoisoindolin-2-yl)-3-(3,4-dimethoxyphenyl)propionate] | – | – | – | – | 42.1 ± 19.3 % | 83.7% | 6.0 ± 2.5 mg | – | – | – | – | Inhibitory Rate of Ear Swelling Degree ([1]; 1 mg/mouse on ear, 18th day, vs model and blank control): 37.8%; Weight Changes of Animals, Day 1 ([1]; Balb/c mice, 1 mg/mouse (50 mg/mL, 20 μL) on ear, Day 1, Mean ± S.D.): 20.6 ± 0.8 g; Inhibitory Rate of Ear Thickness ([1]; Balb/c mice, 1 mg/mouse on ear, 18th day, vs model and blank control): 34.0%; Ear Thickness Change, Day 1 ([1]; Balb/c mice, 1 mg/mouse on ear, Day 1, Mean ± S.D.): 0.21 ± 0.01 mm; Ear Thickness Change, Day 10 [1, 4]: 0.38 ± 0.10 mm; Weight Changes of Animals, Day 10 [1, 4]: 22.3 ± 1.4 g; Ear Thickness Change, Day 17 [1, 5]: 0.58 ± 0.09 mm; Weight Changes of Animals, Day 17 [1, 5]: 22.1 ± 1.8 g; Ear Thickness Change, Day 18 [1, 6]: 0.58 ± 0.10 mm; Weight Changes of Animals, Day 18 [1, 6]: 21.7 ± 1.8 g; Ear Thickness ([1]; Table 4, Balb/c mice, 1 mg/mouse on ear, 18th day): 0.58 ± 0.10 mm; Ear Swelling Degree ([1]; right minus left ear piece weight (8 mm punch), 1 mg/mouse on ear, 18th day): 15.7 ± 4.5 mg; IgE Concentration ([1]; serum, 1 mg/mouse on ear, 18th day): 6526.5 ± 2171.9 ng/mL; Inhibitory Rate of IgE Concentration ([1]; serum, 1 mg/mouse on ear, 18th day, vs model and blank control): 27.0%
2 | CCOc1cc(C(CC(=O)OC)N2C(=O)c3cccc(N(C)C(C)=O)c3C2=O)ccc1OC (stereo not drawn) [Example 24, methyl 3-(4-(N-methylacetamido)-1,3-dioxoisoindolin-2-yl)-3-(3-ethoxy-4-methoxyphenyl)propionate] | – | – | – | – | 43.0 ± 11.8 % | 84.2% | 5.9 ± 1.7 mg | – | – | – | – | –
3 | CCOc1cc(C(CC(=O)OC)N2C(=O)c3ccc(NC(C)=O)cc3C2=O)ccc1OC (stereo not drawn) [Example 25, methyl 3-(5-acetamido-1,3-dioxoisoindolin-2-yl)-3-(3-ethoxy-4-methoxyphenyl)propionate] | – | – | – | – | 59.1 ± 17.5 % | 73.6% | 8.5 ± 2.7 mg | – | – | – | – | –
4 | CCOc1cc(C(CC(=O)OC(C)C)N2C(=O)c3cccc(NC(C)=O)c3C2=O)ccc1OC (stereo not drawn) [Example 12, isopropyl 3-(4-acetamido-1,3-dioxoisoindolin-2-yl)-3-(3-ethoxy-4-methoxyphenyl)propionate] | – | – | – | – | 39.6 ± 14.0 % | 84.8% | 5.8 ± 2.3 mg | – | – | – | – | –

Second part, led by results:

Row | Weight Changes of Animals, Day 1 [3] | Weight Changes of Animals, Day 10 [3] | Weight Changes of Animals, Day 17 [3] | Weight Changes of Animals, Day 18 [3] | SMILES | Ear Swelling Rate [2] | Inhibitory Rate of Ear Swelling Degree [2] | Ear Swelling Degree [2] | Inhibitory Rate of Ear Swelling [3] | Ear Swelling Degree [3] | IgE Concentration [3] | Inhibitory Rate of IgE Concentration [3] | other results
5 | 21.4 ± 0.7 g | 22.8 ± 1.4 g | 23.3 ± 1.4 g | 22.7 ± 1.5 g | CCOC(=O)CC(c1ccc(OC)c(OCC)c1)N1C(=O)c2cccc(NC(C)=O)c2C1=O (stereo not drawn) [Example 6, ethyl 3-(4-acetamido-1,3-dioxoisoindolin-2-yl)-3-(3-ethoxy-4-methoxyphenyl)propionate] | 36.4 ± 11.9 % | 87.3% | 5.1 ± 1.6 mg | 41.7% | 17.1 ± 4.0 mg | 5871.9 ± 2973.8 ng/mL | 32.8% | –
6 | 21.8 ± 0.7 g | 22.8 ± 1.2 g | 23.1 ± 1.1 g | 22.9 ± 1.3 g | CCOC(=O)C[C@H](c1ccc(OC)c(OCC)c1)N1C(=O)c2cccc(NC(C)=O)c2C1=O [Example 51, ethyl (R)-3-(4-acetamido-1,3-dioxoisoindolin-2-yl)-3-(3-ethoxy-4-methoxyphenyl)propionate] | – | – | – | 25.0% | 21.7 ± 4.5 mg | 6599.5 ± 2996.0 ng/mL | 23.3% | –
